Laboratory results taken from patent publication US20100158808A1, “Altered Activity of Toll-Like Receptors” (priority 2003, published 2010).

System: CD86
Assay: CD86 expression in spleen after injection into the spleens of mice
Format: in vivo
Conditions: for Expression of CD86 in the spleen: injection into spleen of mice
Description: Surgical Procedures and Immunohistochemistry. Mice were anesthetized and the spleen was directly visualized through an incision in the lateral abdominal wall. Particular substances in […] of PBS were injected into the spleen. Spleens were harvested after 12 hours and sections were frozen in liquid nitrogen. Tissue sections were prepared and stained as described in (Dempsey et al. supra) with the following modifications. Secondary detection antibodies were diluted in M.O.M. diluent (Vector Laboratories, Burlingame, Calif.) and preabsorbed with mouse serum (Jackson ImmunoResearch Laboratories, West Grove, Pa.). Fluorescent images were converted to grayscale using SPOT software (Diagnostic Instruments, Sterling Heights, Mich.).
To determine whether elastase activity on ECM activates TLR4 responses in living tissues, elastase was injected into the spleens of mice. Such treatment typically causes rapid shedding of HS proteoglycans from the tissue, especially from blood vessels (Johnson et al. (2004) J. Immunol. (Cutting Edge) 172:20-24). The spleens were removed and examined for expression of CD86, a protein expressed in response to TLR4 signaling (Kaisho and Akira (2002) Biochim. Biophys. Acta 1589:1-13). […] In contrast, the expression of CD86 observed in leukocytes detached from ECM and stimulated with LPS or HS is considerably heightened (Johnson et al. supra). […] The changes in CD86 expression induced by elastase required TLR4, as the increase in CD86 was not observed when elastase was injected into spleens of mice lacking TLR4 function. Thus, the ECM may limit TLR4 signaling in vivo, and cleavage of ECM can trigger TLR4 signaling in living tissues.

Substance	Expression of CD86 in the spleen	Increase in CD86 in the spleen (mice lacking TLR4 function)
elastase: pancreatic elastase (Calbiochem; type IV porcine pancreatic elastase, Sigma-Aldrich), protease that cleaves ECM proteins	profoundly increased	not observed
heparan sulfate [HS]	modestly increased	
lipopolysaccharide [LPS]	modestly increased	
